Data reported in patent US7365160B2, “Mutated constitutively active nuclear orphan receptor” (The United States of America as represented by the …, priority 2002, dated 2008).
Substitutions are numbered along the chain they refer to.

Key:
[1] = biological target: T1, mCAR (Mus musculus, UniProt O35627); assay: cell-based transfection assay, (NR1)5-tk-luciferase reporter in HepG2 cells, wild-type mCAR; conditions: for degree of repression: not affected by the mutation of Thr350
T1 construct: mCAR and hCAR expression vectors were constructed by cloning an entire mCAR; expressed in transfected cells; host or cells: HepG2
T1 sequence (O35627 1-358): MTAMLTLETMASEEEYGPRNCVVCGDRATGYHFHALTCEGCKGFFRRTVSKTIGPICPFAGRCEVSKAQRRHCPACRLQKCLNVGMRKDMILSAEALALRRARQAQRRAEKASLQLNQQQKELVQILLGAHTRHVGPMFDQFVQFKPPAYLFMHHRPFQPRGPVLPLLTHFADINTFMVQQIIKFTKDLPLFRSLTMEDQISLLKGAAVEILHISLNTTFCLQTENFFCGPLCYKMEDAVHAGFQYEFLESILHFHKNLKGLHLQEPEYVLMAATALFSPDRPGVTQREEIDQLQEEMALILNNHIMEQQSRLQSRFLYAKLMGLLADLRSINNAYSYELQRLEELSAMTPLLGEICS
Source text: mCAR and hCAR expression vectors were constructed by cloning an entire mCAR (GenBank Accession No: AF009327, deposited on Jul. 22, 1997; SEQ ID NO: 15) or hCAR (GenBank Accession No: Z30425, deposited on Mar. 8, 1994; SEQ ID NO: 17) coding sequence into BamHI and XhoI sites of pCR3 plasmid as described previously (Sueyoshi et al., J Biol Chem 274:6043-6, 1999). Polymerase chain reaction (PCR) was used to amplify the desired hCAR or mCAR fragment from the plasmid. The amplified fragments used for the chimeras were nucleotides encoding amino acids: 1 to 86 of mCAR and 77 to 348 of hCAR (mhh), 1 to 116 of mCAR and 107 to 348 of hCAR (mmh), 1 to 76 of hCAR and 87 to 358 of mCAR (hmm), 1 to 106 of hCAR and 117 to 358 of mCAR (hhm). These fragments were PCR amplified using pfu polymerase and enzymatically phosphorylated primers. The amplified fragments were ligated, and a second PCR amplification was performed on the ligated DNA with the primers for 5′ and 3′ end of the chimeric DNA. The resulting second PCR products were cloned into a pCR3 vector (Invitrogen) with newly created BamHI and XhoI sites at the 5′ and the 3′ ends, respectively.
A mouse SRC-1 cDNA corresponding to amino acid residues 633 to 1450 of SRC-1 (GenBank Accession No: U64828), was amplified and cloned into the EcoRI and Hind III site of pcDNA3.1/myc-His(−)B plasmid (Invitrogen), thereby generating the SRC-1-expression plasmid pcDNA3.1-SRC-1. Wild-type mCAR or mCART350M was co-transfected with or without the SRC-1-expression plasmid (0.1 μg) into HepG2 cells.
The KN-62 repression was examined with and without the co-expression of SRC-1 (EXAMPLE 3).

[2] = system: chimeric receptors hmm and hhm; assay: luciferase reporter assay in HepG2 cells, chimeric receptors with mouse LBD; format: cell-based, mouse/human
[3] = biological target: T2, mCART350M (Mus musculus, UniProt O35627, T350M); assay: luciferase reporter assay in HepG2 cells, mutant mCART350M; format: cell-based; conditions: mCART350M, KN-62 0.1-10 μM, with and without SRC-1
T2 construct: mCAR and hCAR expression vectors were constructed by cloning an entire mCAR; expressed in transfected cells; host or cells: HepG2
T2 sequence (O35627 1-358 T350M): T1 sequence (O35627 1-358) with T350M
Method: The transfected cells were then treated, and luciferase assays performed as described in EXAMPLE 1.
To determine if this effect could be disrupted by mutating Thr350 to a Met, the mCART350M mutant described in EXAMPLE 2 was used. The KN-62 repression was examined with and without the co-expression of SRC-1 (EXAMPLE 3).

[4] = biological target: T1, mCAR; conditions: Kawamoto et al. 2000; cited from earlier work
[5] = biological target: T3, hCAR (Homo sapiens, UniProt Q14994); conditions: Kawamoto et al. 2000; cited from earlier work
T3 construct: expressed in transfected cells; host or cells: HepG2
T3 sequence (Q14994 1-348 isoform Q14994-2): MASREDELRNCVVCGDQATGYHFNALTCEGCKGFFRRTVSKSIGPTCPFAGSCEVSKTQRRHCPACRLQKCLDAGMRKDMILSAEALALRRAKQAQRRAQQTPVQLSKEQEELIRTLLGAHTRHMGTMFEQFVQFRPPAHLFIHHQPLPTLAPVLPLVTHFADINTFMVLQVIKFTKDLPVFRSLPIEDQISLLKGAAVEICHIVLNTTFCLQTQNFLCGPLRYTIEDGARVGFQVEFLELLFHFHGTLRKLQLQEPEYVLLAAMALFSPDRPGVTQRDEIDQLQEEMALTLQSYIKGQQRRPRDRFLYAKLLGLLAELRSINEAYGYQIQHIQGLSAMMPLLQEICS

[6] = biological target: T4, mCAR L352A (Mus musculus, UniProt O35627, L352A); assay: luciferase reporter gene activation assay (PBREM) in HepG2 cells, mCAR L352A mutant; format: cell-based; conditions: only in the presence of exogenous SRC-1
T4 construct: mCAR and hCAR expression vectors were constructed by cloning an entire mCAR; expressed in transfected cells; host or cells: HepG2
T4 sequence (O35627 1-358 L352A): T1 sequence (O35627 1-358) with L352A
Source text: To examine the role of Leu352 in mCAR activity, site-directed mutagenesis was used as described in EXAMPLES 2 and 6.

[7] = system: mCAR T176V / T176L; assay: luciferase reporter gene activation assay (PBREM) in HepG2 cells, mCAR Thr176 mutants; conditions: T176V or T176L; did not require exogenous SRC-1

## CN([C@@H](Cc1ccc(OS(=O)(=O)c2cccc3cnccc23)cc1)C(=O)N1CCN(c2ccccc2)CC1)S(=O)(=O)c1cccc2cnccc12 [KN-62]
[1]; in the absence of SRC-1
  degree of repression: 20-30%
[1]; in the presence of co-expressed SRC-1
  degree of repression: 80%
[1]; wild-type mCAR, KN-62 0.1-10 μM, with and without SRC-1
  repression of receptor activity by KN-62: similarly repressed
[2]; chimeras hmm and hhm
  repression of chimera activity: 2-4 fold
[3]
  repression of receptor activity by KN-62: similarly repressed
[4]
  repression of constitutive activity of mCAR: represses
[5]
  repression of constitutive activity of hCAR: not hCAR

## Clc1cnc(Oc2ccc(Oc3ncc(Cl)cc3Cl)cc2)c(Cl)c1 [TCPOBOP, 1,4-bis [2-(3,5-dichloropyridyloxy)]benzene]
[2]; chimeras hmm and hhm repressed by KN-62
  re-activation of KN-62-repressed chimeric receptors: re-activated
[6]
  activation of L352A mutant: activated
[7]
  activation of mutated mCAR: effectively activated
